Measurements reported in ChEMBL document CHEMBL3992485 (Medchemcomm, 2016).
Active and inactive are the calls of the source. The rule behind the calls is not given here.

Columns and labels:
HepG2 = experiment: Antiproliferative activity against human HepG2 cells measured after 24 hrs by MTT assay; assay type: functional, cell-based; conditions: HepG2, 24 h
[1] = Inhibition of tubulin polymerization in bovine brain assessed as reduction in tubulin assembly after 20 mins by spectrophotometric method; design: species or system Bos taurus
A549 = experiment: Antiproliferative activity against human A549 cells measured after 24 hrs by MTT assay; assay type: functional, cell-based; conditions: A549, 24 h
MCF7 = experiment: Antiproliferative activity against human MCF7 cells measured after 24 hrs by MTT assay; assay type: functional, cell-based; conditions: MCF7, 24 h
HeLa [2] = experiment: Antiproliferative activity against human HeLa cells measured after 24 hrs by MTT assay; assay type: functional, cell-based
[3] = Antiproliferative activity against human 293T cells measured after 24 hrs by MTT assay; assay type: cell-based; conditions: 293T (HEK-293T) cells
HeLa [4] = experiment: Inhibition of microtubule polymerization in human HeLa cells at 0.2 uM after 24 hrs by DAPI staining based confocal microscopic analysis; assay type: cell-based

| Compound | IC50 (HepG2) [µM] | IC50 [1] [µM] | IC50 (A549) [µM] | IC50 (MCF7) [µM] | IC50 (HeLa [2]) [µM] | CC50 at 24 h [3] [µM] | inhibition (HeLa [4]) |
| --- | --- | --- | --- | --- | --- | --- | --- |
| Cn1cc(C(=O)N2CCN(S(=O)(=O)c3ccc(Br)cc3)CC2)c2ccccc21 | 5.79 | 3.96 | 6.49 | 17.3 | 9.86 | 295 |  |
| CCCn1cc(C(=O)N2CCN(S(=O)(=O)c3ccc(Br)cc3)CC2)c2ccccc21 | 44.9 | 27.5 | 39.8 | 64.8 | 27.5 | 463 |  |
| COc1cc2c(c(OC)c1OC)-c1ccc(OC)c(=O)cc1[C@@H](NC(C)=O)CC2 [COLCHICINE] | 0.64 |  | 0.47 | 0.54 | 0.45 | 152 | Active |
| CC(=O)O[C@H]1C(=O)[C@@]2(C)[C@H]([C@H](OC(=O)c3ccccc3)[C@]3(O)C[C@H](OC(=O)[C@H](O)[C@@H](NC(=O)c4ccccc4)c4ccccc4)C(C)=C1C3(C)C)[C@]1(OC(C)=O)CO[C@@H]1C[C@@H]2O |  |  |  |  |  |  | inactive |
| CCn1cc(C(=O)N2CCN(S(=O)(=O)c3ccccc3)CC2)c2ccccc21 | 14.8 | 3.75 | > 100 | 22.7 | 15.8 | 366 |  |
| CCn1cc(C(=O)N2CCN(S(=O)(=O)c3ccc([N+](=O)[O-])cc3)CC2)c2ccccc21 | 69.3 | 5.52 | 63.5 | 50.9 | 48 | 436 |  |
| CCCn1cc(C(=O)N2CCN(S(=O)(=O)c3ccccc3)CC2)c2ccccc21 | 29.7 | 48.9 | 23.6 | 23.6 | > 100 | 485 |  |
| O=C(c1cn(Cc2ccccc2)c2ccccc12)N1CCN(S(=O)(=O)c2ccc(Br)cc2)CC1 | 38.6 | 6.74 | > 100 | 37.8 | 35.6 | 326 |  |
| CCCn1cc(C(=O)N2CCN(S(=O)(=O)c3c(C(C)C)cc(C(C)C)cc3C(C)C)CC2)c2ccccc21 | 16.8 | 2.87 | 17.5 | 11.6 | 14.9 | 311 |  |
| Cc1ccc(S(=O)(=O)N2CCN(C(=O)c3cn(Cc4ccccc4)c4ccccc34)CC2)cc1 | 33.2 | 3.02 | 17 | 18.7 | 10 | 321 |  |
| CCn1cc(C(=O)N2CCN(S(=O)(=O)c3ccc(Br)cc3)CC2)c2ccccc21 | 26.6 | 4.87 | 48.4 | 27.6 | 32.9 | 354 |  |
| CCCn1cc(C(=O)N2CCN(S(=O)(=O)c3ccc([N+](=O)[O-])cc3)CC2)c2ccccc21 | > 100 | 44.8 | > 100 | > 100 | > 100 | 464 |  |
| Cn1cc(C(=O)N2CCN(S(=O)(=O)c3ccccc3)CC2)c2ccccc21 | 4.54 | 2.76 | 15.5 | 9.43 | 7.76 | 314 |  |
| O=C(c1cn(Cc2ccccc2)c2ccccc12)N1CCN(S(=O)(=O)c2ccc([N+](=O)[O-])cc2)CC1 | > 100 | 6.84 | > 100 | 50.6 | 42.9 | 347 |  |
| O=C(c1cn(Cc2ccccc2)c2ccccc12)N1CCN(S(=O)(=O)c2ccccc2)CC1 | 27.9 | 5.64 | 22.4 | 35.6 | 21.1 | 262 |  |
| CCCn1cc(C(=O)N2CCN(S(=O)(=O)c3ccc(Cl)cc3)CC2)c2ccccc21 | 50.6 | 45.4 | > 100 | > 100 | > 100 | 537 |  |
| CC(C)c1cc(C(C)C)c(S(=O)(=O)N2CCN(C(=O)c3cn(Cc4ccccc4)c4ccccc34)CC2)c(C(C)C)c1 | 17.6 | 3.64 | 10.7 | 14.1 | 18.3 | 295 |  |
| CCCn1cc(C(=O)N2CCN(S(=O)(=O)c3ccc(C)cc3)CC2)c2ccccc21 | 24.9 | 3.15 | 14.7 | 16.8 | 10.7 | 357 |  |
| Cn1cc(C(=O)N2CCN(S(=O)(=O)c3ccc(Cl)cc3)CC2)c2ccccc21 | 16.3 | 3.34 | 25.3 | 29.5 | 11.7 | 257 |  |
| Cc1ccc(S(=O)(=O)N2CCN(C(=O)c3cn(C)c4ccccc34)CC2)cc1 | 1.83 | 2.15 | 7.43 | 6.53 | 3.65 | 353 |  |
| CCn1cc(C(=O)N2CCN(S(=O)(=O)c3ccc(Cl)cc3)CC2)c2ccccc21 | 36.8 | 44.9 | > 100 | 46.6 | > 100 | 275 |  |
| O=C(c1cn(Cc2ccccc2)c2ccccc12)N1CCN(S(=O)(=O)c2ccc(Cl)cc2)CC1 | > 100 | 6.01 | 54.8 | 46.6 | > 100 | 472 |  |
| Cn1cc(C(=O)N2CCN(S(=O)(=O)c3ccc([N+](=O)[O-])cc3)CC2)c2ccccc21 | 28 | 3.56 | 44.6 | 32.6 | 15.6 | 374 |  |
| CC(C)c1cc(C(C)C)c(S(=O)(=O)N2CCN(C(=O)c3cn(C)c4ccccc34)CC2)c(C(C)C)c1 | 0.45 | 1.97 | 0.94 | 0.63 | 0.37 | 383 |  |
| CCn1cc(C(=O)N2CCN(S(=O)(=O)c3ccc(C)cc3)CC2)c2ccccc21 | 7.45 | 3.75 | 24.7 | 24.6 | 12.8 | 298 |  |
